# Measured values as given in patent US8815872B2, “Macrocyclics pyrimidines as aurora kinase inhibitors” (Merck Patent GmbH, priority 2008, dated 2014).
# Several values for one entry are separate records, joined by “and”; a condition that tells them apart may be missing. Equal entries are not always repeated. Where two headings read alike, the source gives them in different places.
# Experiments:
# Aurora B = Aurora B (Homo sapiens, UniProt Q96GD4); assay: Aurora B enzyme assay (Caliper); type: biochemical
# Chain of Aurora B (Q96GD4 whole entry): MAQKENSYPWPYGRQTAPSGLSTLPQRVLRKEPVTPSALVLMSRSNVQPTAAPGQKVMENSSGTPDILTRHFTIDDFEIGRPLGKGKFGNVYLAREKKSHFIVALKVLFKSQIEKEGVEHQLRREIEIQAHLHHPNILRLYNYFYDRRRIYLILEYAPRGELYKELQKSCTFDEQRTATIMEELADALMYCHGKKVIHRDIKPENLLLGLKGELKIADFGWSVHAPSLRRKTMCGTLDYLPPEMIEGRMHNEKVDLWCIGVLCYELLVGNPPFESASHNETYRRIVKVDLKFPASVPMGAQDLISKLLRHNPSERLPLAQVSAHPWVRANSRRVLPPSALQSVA
# Protocol: (§1) The Aurora and other kinase assays described here were performed on two Caliper Life Sciences systems, the LC3000 and the Desktop Profiler. These provide data on enzyme activity via measurement of the relative amounts of phosphorylated or unphosphorylated fluorescently labelled substrate peptide at the end of an enzymatic reaction. These different states of peptide are resolved by applying a potential difference across the sample. The presence of a charged phosphate group on the product (as opposed to the substrate) causes a different peptide mobility between the two peptides. This is visualized by excitation of a fluorescent label on the substrate and product peptides and represented as peaks within the analysis software.
# Aurora A = biological target: T1, Aurora A (Homo sapiens, UniProt O14965); assay: Aurora A enzyme assay (Caliper LC3000 mobility shift); type: biochemical
# T1 construct: N-terminal GST fusion with full length Aurora A (1-403 amino acids); purchased Carna Biosciences 05-101
# T1 sequence (O14965 1-403): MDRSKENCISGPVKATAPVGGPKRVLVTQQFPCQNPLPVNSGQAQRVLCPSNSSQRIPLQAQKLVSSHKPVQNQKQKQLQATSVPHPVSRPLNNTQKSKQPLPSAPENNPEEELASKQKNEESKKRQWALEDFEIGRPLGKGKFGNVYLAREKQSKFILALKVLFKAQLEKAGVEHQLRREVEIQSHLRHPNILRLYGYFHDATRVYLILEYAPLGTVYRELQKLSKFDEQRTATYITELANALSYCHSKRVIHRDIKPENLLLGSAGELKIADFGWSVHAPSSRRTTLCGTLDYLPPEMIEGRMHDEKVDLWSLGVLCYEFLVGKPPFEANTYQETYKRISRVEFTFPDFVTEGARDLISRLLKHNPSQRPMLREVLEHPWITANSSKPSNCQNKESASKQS
# Protocol: as §1
# For example, in order to measure inhibitor activity of Aurora A inhibitors in the Caliper Life Sciences LC3000, a TTP Mosquito liquid handling instrument was used to place […] of an appropriate concentration of inhibitor in 100% DMSO (for a dose response curve calculation) into each well of a 384-well plate. To this reaction components were added to a final volume of 25 μl: • 0.067 ng/μl GST-Aurora A (Carna Biosciences 05-101. N-terminal GST fusion with full length Aurora A (1-403 amino acids), accession number NP_940835.1). • 15 μM ATP (Fluka, 02055) • 1 mM DTT (Sigma, D0632) • 1 mM MgC12 (Sigma, M1028) • 1 μM substrate peptide (sequence FITC-LRRASLG-(CONH2), synthesized by Tufts Peptide Synthesis service. • 100 mM HEPES pH 7.5 (Calbiochem, 391338) • 0.015% Brij-35 (Sigma, B4184)
# The reaction was incubated for 90 min at 25° C., and then stopped by the addition of 70 μl of Stop buffer (100 mM HEPES pH 7.5, 0.015% Brij-35, 10 mM EDTA (Sigma, E7889)).
# The plate was read on a Caliper LC 3000 in an Off-Chip mobility shift assay format, using the following parameters for a 12-sipper chip: screening pressure −1.8 psi, upstream voltage −2700, downstream voltage −1000. These conditions cause unphosphorylated substrate and phosphorylated product peptide to resolve as separate peaks allowing direct measurement of percentage of conversion of substrate to product. The percent conversion was plotted against concentration of inhibitor to produce a sigmoidal dose response curve, from which an IC50 was calculated using XLFit for Microsoft Excel.
# A549 = assay: Cellular activity A549; type: cell-based
# Protocol: (§2) The susceptibility of a particular cell to treatment with the compounds according to the invention was determined by in vitro tests. Typically, a culture of the cell was combined with a compound according to the invention at various concentrations for a period of time that was sufficient to allow the active agents to induce cell death or to inhibit migration, usually between about one hour and one week. In vitro testing was carried out using cultivated cells from a biopsy sample. The viable cells remaining after the treatment then were counted.
# [1] = biological target: kinases (not incl. Aurora); assay: Kinase inhibition profile (not incl. Aurora); type: biochemical; settings: at 1 μM; hit means >79% inhibition
# Protocol: as §1
# The Desktop Profiler utilizes the same principal as the LC 3000 for calculating percentage conversion of a substrate to product. Caliper Life Sciences provided proprietary flash frozen pre-made 384 well plates containing selected kinases. Each column in the 384 well plate contained a particular selected kinase. A second plate, the ‘substrate plate’ contained a mix of fluorescently labeled peptide substrate and ATP. These were arranged in columns so that transfer for substrate plate to enzyme plate provided the correct enzyme with the correct substrate/ATP concentration.
# Compounds were added to a thawed enzyme plate in the desired format, in single concentrations. Reactions were initiated by transfer of the ubstrate/ATP mix from the substrate plate. The enzyme plate was incubated for 90 mins at 25 °C. The reaction was stopped by addition of […] of Stop Buffer (100 mM HEPES pH 7.5, 0.015% Brij-35, 10 mM EDTA (Sigma, E7889)).
# Plates were read in a manner identical to that of the LC3000, and the ratio between substrate and product peaks provided the activity of the enzyme in that well. This was best represented by a plate heat map which colors each well by percent inhibition as compared to positive and negative controls (no inhibitors and no ATP respectively).
# MiaPaca2 = assay: Cellular activity MiaPaca2; type: cell-based
# Protocol: as §2
compound,measurement,setting,value
CN1Cc2cccc(c2)Nc2ncc(F)c(n2)N[C@@H]2[C@@H]3C[C@@H](C[C@H]3C1)[C@@H]2C(N)=O,"ring closure, yield of all isomers","from CN(Cc1cccc(N)c1)C[C@@H]1C[C@@H]2C[C@H]1[C@@H](Nc1nc(Cl)ncc1F)[C@H]2C(N)=O, snar bond",5.5%
same,IC50,Aurora B,1 to 100 nM
same,IC50,Aurora A,1000 to 6250 nM
CN1CCN(c2ccc3cc2CNC[C@@H]2C[C@@H]4C[C@H]2[C@@H](Nc2nc(ncc2F)N3)[C@H]4C(N)=O)CC1,"ring closure, yield of all isomers","from CN1CCN(c2ccc(N)cc2CNC[C@@H]2C[C@@H]3C[C@H]2[C@@H](Nc2nc(Cl)ncc2F)[C@H]3C(N)=O)CC1, snar bond, HCl",24.9%
same,IC50,Aurora B,1 to 100 nM
same,IC50,Aurora A,101 to 1000 nM
NC(=O)[C@H]1[C@@H]2CC3CNC(=O)Nc4cccc(c4)Nc4ncc(F)c(n4)N[C@@H]1[C@@H]3C2 (some centres unmarked),"ring closure, yield of all isomers","from NC(=O)[C@H]1[C@@H]2CC(CNC(=O)Nc3cccc(N)c3)[C@@H](C2)[C@H]1Nc1nc(Cl)ncc1F, snar bond",15.1%
same,IC50,A549; Homo sapiens,> 6250 nM
same,IC50,Aurora B,101 to 1000 nM
same,IC50,Aurora A,101 to 1000 nM
same,Kinase Inhibition Profile (not incl. Aurora) # kinases hit/# kinases tested,[1],1/76 at 1 μM
same,IC50,"MiaPaca2; Homo sapiens, MIA PaCa-2",1000 to 6250 nM
NC(=O)[C@H]1[C@@H]2C[C@H]3CNS(=O)(=O)Cc4cccc(c4)Nc4ncc(F)c(n4)N[C@@H]1[C@@H]3C2,"ring closure, yield of all isomers","from NC(=O)[C@H]1[C@@H]2C[C@@H](CNS(=O)(=O)Cc3cccc(N)c3)[C@@H](C2)[C@H]1Nc1nc(Cl)ncc1F, snar bond",6.3%
same,IC50,A549; Homo sapiens,1000 to 6250 nM
same,IC50,Aurora B,101 to 1000 nM
same,IC50,Aurora A,1 to 100 nM
same,IC50,"MiaPaca2; Homo sapiens, MIA PaCa-2",1000 to 6250 nM
NC(=O)[C@H]1[C@@H]2C[C@H]3CNC(=O)Cn4cnc(c4)Nc4ncc(F)c(n4)N[C@@H]1[C@@H]3C2,"ring closure, yield of all isomers","from NC(=O)[C@H]1[C@@H]2C[C@@H](CNC(=O)Cn3cnc([N+](=O)[O-])c3)[C@@H](C2)[C@H]1Nc1nc(Cl)ncc1F, snar bond, 2 steps",46.6%
same,IC50,Aurora B,1000 to 6250 nM
same,IC50,Aurora A,1000 to 6250 nM
NC(=O)[C@H]1[C@@H]2C[C@H]3CNCC(O)c4cccc(c4)Nc4ncc(F)c(n4)N[C@@H]1[C@@H]3C2 (some centres unmarked),"ring closure, yield of all isomers","from NC(=O)[C@H]1[C@@H]2C[C@@H](CNCC(O)c3cccc(N)c3)[C@@H](C2)[C@H]1Nc1nc(Cl)ncc1F, snar bond, HCl",43.9%
same,IC50,Aurora A,101 to 1000 nM
CN1CCN(c2cc3cc(c2)S(=O)(=O)NC[C@@H]2C[C@@H]4C[C@H]2[C@@H](Nc2nc(ncc2F)N3)[C@H]4C(N)=O)CC1,"ring closure, yield of all isomers","from CN1CCN(c2cc(N)cc(S(=O)(=O)NC[C@@H]3C[C@@H]4C[C@H]3[C@@H](Nc3nc(Cl)ncc3F)[C@H]4C(N)=O)c2)CC1, snar bond, HCl",6.8%
same,IC50,Aurora A,1 to 100 nM
NC(=O)[C@H]1[C@@H]2C[C@H]3CNCC(=O)Nc4cccc(c4)Nc4ncc(F)c(n4)N[C@@H]1[C@@H]3C2,"ring closure, yield of all isomers","from NC(=O)[C@H]1[C@@H]2C[C@@H](CNCC(=O)Nc3cccc(N)c3)[C@@H](C2)[C@H]1Nc1nc(Cl)ncc1F, snar bond",44%
same,IC50,Aurora B,101 to 1000 nM
same,IC50,Aurora A,101 to 1000 nM
NC(=O)[C@H]1[C@H]2C[C@H]3[C@H]1Nc1nc(ncc1F)Nc1cccc(c1)CC(=O)N[C@@H]3C2,"ring closure, yield of all isomers","from NC(=O)[C@H]1[C@H]2C[C@@H]([C@H]1Nc1nc(Cl)ncc1F)[C@H](NC(=O)Cc1cccc(N)c1)C2, snar bond",8.1%
same,IC50,Aurora B,1 to 100 nM
same,IC50,Aurora A,1 to 100 nM
CN1CCN(c2ccc3cc2CC(=O)N[C@@H]2C[C@@H]4C[C@H]2[C@@H](Nc2nc(ncc2F)N3)[C@H]4C(N)=O)CC1,"ring closure, yield of all isomers","from CN1CCN(c2ccc(N)cc2CC(=O)N[C@@H]2C[C@@H]3C[C@H]2[C@@H](Nc2nc(Cl)ncc2F)[C@H]3C(N)=O)CC1, snar bond",5.3%
same,IC50,Aurora B,1 to 100 nM
same,IC50,Aurora A,1 to 100 nM
NC(=O)[C@H]1[C@H]2C[C@H]3[C@H]1Nc1nc(ncc1F)Nc1cccc(c1)CNC(=O)N[C@@H]3C2,"ring closure, yield of all isomers","from NC(=O)[C@H]1[C@H]2C[C@@H]([C@H]1Nc1nc(Cl)ncc1F)[C@H](NC(=O)NCc1cccc(N)c1)C2, snar bond",36.7%
same,IC50,A549; Homo sapiens,1000 to 6250 nM
same,IC50,Aurora B,1 to 100 nM
same,IC50,Aurora A,1 to 100 nM
same,IC50,"MiaPaca2; Homo sapiens, MIA PaCa-2",1000 to 6250 nM
NC(=O)[C@H]1[C@H]2C[C@H]3[C@H]1Nc1nc(ncc1F)Nc1cccc(c1)COC(=O)N[C@@H]3C2,"ring closure, yield of all isomers","from NC(=O)[C@H]1[C@H]2C[C@@H]([C@H]1Nc1nc(Cl)ncc1F)[C@H](NC(=O)OCc1cccc(N)c1)C2, snar bond",3.3%
same,IC50,A549; Homo sapiens,1000 to 6250 nM
same,IC50,Aurora B,1 to 100 nM
same,IC50,Aurora A,1 to 100 nM
same,IC50,"MiaPaca2; Homo sapiens, MIA PaCa-2",1000 to 6250 nM
CN1CCN(c2ccc3cc2COC(=O)N[C@@H]2C[C@@H]4C[C@H]2[C@@H](Nc2nc(ncc2F)N3)[C@H]4C(N)=O)CC1,"ring closure, yield of all isomers","from CN1CCN(c2ccc(N)cc2COC(=O)N[C@@H]2C[C@@H]3C[C@H]2[C@@H](Nc2nc(Cl)ncc2F)[C@H]3C(N)=O)CC1, snar bond, HCl",8.7%
same,IC50,A549; Homo sapiens,101 to 1000 nM
same,IC50,Aurora B,1 to 100 nM
same,IC50,Aurora A,1 to 100 nM
same,IC50,"MiaPaca2; Homo sapiens, MIA PaCa-2",101 to 1000 nM
CC(=O)N1Cc2cccc(c2)Nc2ncc(F)c(n2)N[C@@H]2[C@@H]3C[C@@H](C[C@H]3C1)[C@@H]2C(N)=O,"ring closure, yield of all isomers","from CC(=O)N(Cc1cccc(N)c1)C[C@@H]1C[C@@H]2C[C@H]1[C@@H](Nc1nc(Cl)ncc1F)[C@H]2C(N)=O, snar bond",45.4%
Fc1cnc2nc1NC1CCC(CC1)OCC=CCOc1cccc(c1)N2,"ring closure, yield of all isomers","from C=CCOc1cccc(Nc2ncc(F)c(NC3CCC(OCC=C)CC3)n2)c1, rcm bond, Grubbs 2nd generation, then Hoveyda-Grubbs 2nd generation, dichloromethane, 2.0 mM, 40.0 °C, 76.0 h",2.7% and 5.9%
Fc1cnc2nc1NC1CCCC(C1)OCC=CCOc1cccc(c1)N2 (centres unmarked),"ring closure, yield of all isomers","from C=CCOc1cccc(Nc2ncc(F)c(NC3CCCC(OCC=C)C3)n2)c1, rcm bond, Grubbs 2nd generation, dichloromethane, 2.0 mM, 40.0 °C, 16.0 h",1.5%
NC(=O)[C@H]1[C@@H]2CC3CNC(=O)c4cccc(c4)Nc4ncc(F)c(n4)N[C@@H]1[C@@H]3C2 (some centres unmarked),"ring closure, yield of all isomers","from CC(C)(C)OC(=O)Nc1cccc(C(=O)NCC2C[C@@H]3C[C@H]2[C@@H](Nc2nc(Cl)ncc2F)[C@H]3C(N)=O)c1, snar bond, TFA, 2 steps",1.8%
NC(=O)[C@H]1[C@@H]2CC3CNS(=O)(=O)c4cccc(c4)Nc4ncc(F)c(n4)N[C@@H]1[C@@H]3C2 (some centres unmarked),"ring closure, yield of all isomers","from NC(=O)[C@H]1[C@@H]2CC(CNS(=O)(=O)c3cccc(N)c3)[C@@H](C2)[C@H]1Nc1nc(Cl)ncc1F, snar bond",8.5%
NC(=O)[C@H]1[C@@H]2C[C@H]3CNC(=O)Cc4cccc(c4)Nc4ncc(F)c(n4)N[C@@H]1[C@@H]3C2,"ring closure, yield of all isomers","from NC(=O)[C@H]1[C@@H]2C[C@@H](CNC(=O)Cc3cccc(N)c3)[C@@H](C2)[C@H]1Nc1nc(Cl)ncc1F, snar bond, 2 steps",7%
NC(=O)[C@H]1[C@@H]2CC3CNC(=O)c4cccc(c4)Nc4ncc(F)c(n4)N[C@@H]1[C@@H]3C2 (some centres unmarked) [drawing 259],IC50,A549,1000 to 6250 nM
same,IC50,Aurora B,1 to 100 nM
same,IC50,Aurora A,1 to 100 nM
same,Kinase Inhibition Profile (not incl. Aurora) # kinases hit/# kinases tested,[1],1/76 at 1 μM
same,IC50,MiaPaca2; MiaPaca2,1000 to 6250 nM
